In publication PMC11939955, “Enhancing Antimicrobial Peptides from Frog Skin: A Rational Approach” (Biomolecules, 2025):
Values joined by “and” are separate entries in the source; they are usually repeats but may differ in a detail not shown here. Equal entries are not always repeated. Where no end group is shown, it is not given here.

Columns and labels:
[1] = Carboxyfluorescein (CF) release from LUVs; set-up: species or system E. coli; settings: at the lowest peptide concentrations (8, 32, 50, 64 μM tested); 10 min, ex 490 nm/em 517 nm, duplicate
Experimental: Large unilamellar vesicles (LUVs) were prepared with the total lipid extract of E. coli (Avanti Polar Lipids). For this, an aliquot of 1 mg of lipids dissolved in chloroform was deposited into a glass tube and dried by evaporation with nitrogen (N2). The glass tube underwent vacuum treatment to eliminate any residual solvent traces. The lipids were then hydrated in 200 μL of a 5,6-carboxyfluorescein (CF) solution (Sigma-Aldrich) at a concentration of 49 mM, pH 8, and 431 mOsm/kgH2O through nine cycles of heating (70 °C for 30 s), vortexing (1 min), and freezing (ice bath for 30 s). A polycarbonate filter with a pore size of 100 nm was employed to standardize the liposome size. Twenty-one extrusion cycles were conducted at 40 °C through the filter, resulting in LUVs with an average diameter of 100 nm. Size exclusion chromatography (Sephadex G-25) was utilized to remove the CF outside of the LUVs.
The fluorescence spectra of the CF-filled LUVs were measured using a FluoroMax3 Jobin Yvon spectrofluorometer (Horiba Jobin Yvon; Edison, NJ, USA). A 200 μL aliquot of the LUVs containing 100 μM CF was utilized for the experiment. Excitation was performed over a wavelength range of 400 to 540 nm, with the emission recorded at 517 nm. The peptides were added at various final concentrations (8, 32, 50, and 64 μM), and the fluorescence was assessed 10 min after each addition. […]

E. coli (ATCC 25922) = assay: Synergistic checkerboard assay; assay type: cell-based, Escherichia coli
Experimental: Briefly, working solutions of the peptides were prepared and serially diluted by half across the rows and columns of a microplate, ensuring that each well contained a unique combination of peptide concentrations. The starting concentrations corresponded to the respective MIC values of each peptide, followed by two-fold serial dilutions.
Each well was filled with 50 µL of the peptide solution (individual or combined) and 50 µL of a bacterial suspension (1 × 10^6 CFU/mL), resulting in a final bacterial concentration of 5 × 10^5 CFU/mL. The individual peptide solutions served as positive controls, while the MH medium was employed as a negative control. The microplates were incubated at 37 °C overnight. The test was performed in three independent experiments. The fractional inhibitory concentrations index (ΣFIC) was calculated using the following equation: (1) ∑FIC =MIC(A) in combination/MIC(A) alone+MIC(B) in combination /MIC(B) alone
The FIC index (ΣFIC) was interpreted as follows: ΣFIC ≤ 0.5 indicated synergy; 0.5 < ΣFIC ≤ 4 indicated no effect; and 4 < ΣFIC indicated antagonism.

[2] = DPPH radical-scavenging activity; settings: peptides 0.1, 0.05, 0.025 mg/mL, 30 min dark 25 °C, absorbance 515 nm, triplicate
Experimental: A stock solution of 60 µM 1,1-diphenyl-2-picrylhydrazyl (DPPH) was prepared in ethanol, with its absorbance adjusted to 0.7 at 515 nm immediately before the assay using a Shimadzu 1240 UV–visible spectrophotometer (Kyoto, Japan). The peptides were dissolved in PBS, and 20 µL aliquots of each peptide solution were incubated with 180 µL of the ethanolic DPPH solution in triplicate, at final concentrations of 0.1, 0.05, and 0.025 mg/mL. For the negative control, 20 µL of PBS was mixed with 180 µL of the DPPH solution, while 20 µL of Trolox (6-hydroxy-2,5,7,8-tetramethylchroman-2-carboxylic acid) served as the positive control and standard. The mixtures were incubated in the dark at 25 °C for 30 min, after which, the absorbance was measured at 515 nm. The reduction in absorbance, indicative of DPPH-scavenging activity, was compared to a standard curve. The results were expressed as milligrams of Trolox equivalents per milligram of peptide (mg Trolox equivalents/mg of peptide).

[3] = tested on: Escherichia coli (ATCC 25922); assay type: cell-based
Experimental: (§1) Hylin-Pul3 and six derivatives (dHP3-31, dHP3-50, dHP3-50.137, dHP3-50.190, dHP3-84, and dHP3-84.39) were tested against two Gram-positive bacteria, Staphylococcus aureus (ATCC 25923) and Streptococcus mutans (ATCC 25175), as well as three Gram-negative bacteria: Escherichia coli (ATCC 25922), Klebsiella pneumoniae (ATCC 13883), and Acinetobacter baumannii (ATCC 13304). The minimal inhibitory concentration (MIC) was determined using the microbroth dilution.
(§2) The peptides were serially diluted in concentrations ranging 128 to 0.25 μM, with gentamicin serving as a positive control, which was serially diluted to concentrations of 20 to 0.04 μM. Bacterial cultures were prepared in Mueller–Hinton (MH) medium to achieve a final inoculum concentration of 5 × 10^5 CFU/mL. […] All tests were performed in duplicate and repeated across three independent experiments.

[4] = tested on: Acinetobacter baumannii (ATCC 13304); assay type: cell-based
Experimental: as §1, §2

[5] = tested on: Streptococcus mutans (ATCC 25175); assay type: cell-based
Experimental: as §1, §2

[6] = tested on: Staphylococcus aureus (ATCC 25923); assay type: cell-based
Experimental: as §1, §2

[7] = tested on: Klebsiella pneumoniae (ATCC 13883); assay type: cell-based; settings: ATCC 13883
Experimental: as §1, §2

ABTS assay = settings: peptides 0.05, 0.025, 0.0125 mg/mL, 1 h dark, absorbance 734 nm, triplicate
Experimental: The 2,2-azinobis-3-ethylbenzothiazoline-6-sulfonic acid (ABTS^+) free radical-scavenging activity was determined following the method in [38]. The ABTS⁺ radical cation was generated by diluting a 245 mM ammonium persulfate (APS) solution at a ratio of 1:100 with a 7 mM ABTS solution, followed by overnight incubation in the dark at room temperature. The ABTS^+ solution was then diluted with water to obtain an absorbance of 0.70 at 734 nm immediately before the assay using a Shimadzu 1240 UV-visible spectrophotometer (Kyoto, Japan). The peptides were dissolved in PBS, and 10 µL aliquots of each peptide solution were incubated with 190 µL of the ABTS^+ solution in triplicate, at final concentrations of 0.05, 0.025, and 0.0125 mg/mL. After a 1 h incubation in the dark, the absorbance was measured at 734 nm. The radical-scavenging activity was quantified against a standard curve, with the results expressed as milligrams of Trolox equivalents per milligram of peptide.

[8] = tested on: Human primary fibroblasts; assay type: cell-based; settings: MTT, 24 h
Experimental: Human primary fibroblasts were kindly provided by CellSeq Solutions (Belo Horizonte, Brazil) and cultured in DMEM (Dulbecco’s Modified Eagle’s Medium, Gibco, Waltham, MA, USA) supplemented with 10% (v/v) fetal bovine serum (FBS; Gibco, Waltham, MA, USA) and a 1000 U/mL penicillin/streptomycin solution (Gibco, Waltham, MA, USA). The cells were maintained at 5% CO2, 37 °C, and 95% humidity.
To investigate the impact of the antimicrobial peptides hylin-Pul3, dHP3-31, dHP3-50, dHP3-50.137, dHP3-50.190, dHP3-84, and dHP3-84.39 on primary human fibroblast proliferation and viability, the 3-(4,5-dimethylthiazol-2-yl)-2,5-diphenyl tetrazolium bromide (MTT) metabolization assay (Sigma Aldrich; Misuri, USA) was performed. Human fibroblast cells (7 × 10^3 cells/well) were plated in a 96-well plate and treated with 0.5, 1, 5, 10, 25, 50, and 100 μg/mL of each peptide for 24 h. After this period, the cells were incubated with 5 mg/mL MTT for 4 h. The formazan crystals formed were solubilized by adding dimethyl sulfoxide (DMSO). The absorbance was measured at 570 nm using a spectrophotometer (Multiskan™ FC Microplate Photometer; Thermo Fisher Scientific, Waltham, MA, USA).

[9] = versus parent peptide hylin-Pul3

**Q.** Which results are given for RAGALWPAIRGAIKKIIKK-NH2 [dHP3-50.137]?
**A.** CF release from LUVs [1]: 50%; Synergistic Activity, FIC Index (ΣFIC) (E. coli (ATCC 25922); combination of dHP3-84 and dHP3-50.137, E. coli ATCC 25922, 5 × 10^5 CFU/mL, 37 °C overnight, three independent experiments, ΣFIC ≤ 0.5 = synergy): 0.5; Improvement of combined activity compared to each peptide individually (E. coli (ATCC 25922); dHP3-84 + dHP3-50.137, E. coli): 2 fold; Antioxidant activity DPPH [2]: did not reveal significant activity; Antimicrobial Activity (MIC) E. coli ATCC 25922 [3]: 4.0 ± 0.0 µM; Reduction in MIC of up to (Gram-negative strains) compared to hylin-Pul3 ([3]; strain not given, largest reduction): up to 8 fold; Reduction in MIC against E. coli compared to hylin-Pul3 [3, 9]: 4 fold; Antimicrobial Activity (MIC) A. baumannii ATCC 13304 [4]: 8.0 ± 0.0 µM; Reduction in MIC against A. baumannii compared to hylin-Pul3 [4, 9]: 4 fold; Antimicrobial Activity (MIC) S. mutans ATCC 25175 [5]: 32.0 ± 0.0 µM; Antimicrobial Activity (MIC) S. aureus ATCC 25923 [6]: 64.0 ± 0.0 µM; Antimicrobial Activity (MIC) K. pneumoniae ATCC 13883 [7]: 53.3 ± 16.5 µM; Antioxidant activity ABTS (ABTS assay): 0.08 mg Trolox/mg

**Q.** For RRGKLIPRLAKAIGRLIRK-OH [dHP3-84.39], which “CF release from LUVs” value [1] is on record?
**A.** The value was 50%.

**Q.** What about the “Concentration at which fibroblast viability increased (proliferative effect)” value [8] of the same substance?
**A.** The value was 5 μg/mL and 2.3 µM.

**Q.** And the “Antimicrobial Activity (MIC) E. coli ATCC 25922” value [3]?
**A.** The value was 6.6 ± 4.8 µM.

**Q.** What about the “Antimicrobial Activity (MIC) A. baumannii ATCC 13304” value [4] of the same substance?
**A.** Its value is 16.0 ± 0.0 µM.

**Q.** And the “Antimicrobial Activity (MIC) S. mutans ATCC 25175” value [5]?
**A.** Its value is greater than 64 µM.

**Q.** And the “Antimicrobial Activity (MIC) S. aureus ATCC 25923” value [6]?
**A.** The value was 26.6 ± 8.3 µM.

**Q.** And the “Antimicrobial Activity (MIC) K. pneumoniae ATCC 13883” value [7]?
**A.** The value was 64.0 ± 0.0 µM.
